Experimental data as given in patent US6608086B2, “Dihydropyridines and new uses thereof” (Synaptic Pharmaceutical Corporation, priority 1993, dated 2003).
pKi: −log10 of the molar value. Where two headings read alike, the source gives them in different places.

How the values were obtained:
[1] = target: T1, α1A Human Adrenergic Receptor (Homo sapiens, UniProt P25100); assay: Radioligand binding, [3H]prazosin, cloned human α1A adrenergic receptor; settings: for pKi: PKi alpha-1 1a; for Ki: read-out: PKi alpha-1 1a (converted)
T1 construct: The entire coding region of α1A (1719 bp); expressed in transfected cells
T1 sequence (P25100 1-572): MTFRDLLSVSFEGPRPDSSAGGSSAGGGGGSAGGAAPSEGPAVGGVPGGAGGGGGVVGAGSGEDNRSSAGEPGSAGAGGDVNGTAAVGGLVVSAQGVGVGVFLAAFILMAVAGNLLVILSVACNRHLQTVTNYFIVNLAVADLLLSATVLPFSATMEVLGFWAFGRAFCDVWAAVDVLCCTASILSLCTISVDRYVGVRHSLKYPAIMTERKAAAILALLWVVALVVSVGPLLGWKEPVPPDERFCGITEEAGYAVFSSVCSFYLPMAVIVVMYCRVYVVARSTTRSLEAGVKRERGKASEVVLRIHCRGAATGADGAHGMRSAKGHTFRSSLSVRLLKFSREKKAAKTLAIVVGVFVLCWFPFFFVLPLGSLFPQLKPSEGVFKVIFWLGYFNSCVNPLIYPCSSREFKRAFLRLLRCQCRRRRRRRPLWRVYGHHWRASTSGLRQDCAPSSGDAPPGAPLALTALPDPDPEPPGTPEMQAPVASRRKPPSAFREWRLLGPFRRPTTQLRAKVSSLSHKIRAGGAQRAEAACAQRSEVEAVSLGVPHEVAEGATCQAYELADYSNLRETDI
Summary of the method: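 Competition binding used membrane preparations of transfected LM(tk−) cells and the α1 antagonist [3H]prazosin at 0.5 nM, incubated 20 min at 37° C in Tris-HCl buffer, pH 7.5.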

α2B receptor = target: T2, α2B receptor (Homo sapiens, UniProt P18089); assay: Competition binding, [3H]rauwolscine, human α2B receptor; settings: for pKi: PKi alpha-2 2b; for Ki: read-out: PKi alpha-2 2b (converted)
T2 construct: host or cells: LM(tk-) cells, line L-NGC-α2B
T2 sequence (P18089 1-450): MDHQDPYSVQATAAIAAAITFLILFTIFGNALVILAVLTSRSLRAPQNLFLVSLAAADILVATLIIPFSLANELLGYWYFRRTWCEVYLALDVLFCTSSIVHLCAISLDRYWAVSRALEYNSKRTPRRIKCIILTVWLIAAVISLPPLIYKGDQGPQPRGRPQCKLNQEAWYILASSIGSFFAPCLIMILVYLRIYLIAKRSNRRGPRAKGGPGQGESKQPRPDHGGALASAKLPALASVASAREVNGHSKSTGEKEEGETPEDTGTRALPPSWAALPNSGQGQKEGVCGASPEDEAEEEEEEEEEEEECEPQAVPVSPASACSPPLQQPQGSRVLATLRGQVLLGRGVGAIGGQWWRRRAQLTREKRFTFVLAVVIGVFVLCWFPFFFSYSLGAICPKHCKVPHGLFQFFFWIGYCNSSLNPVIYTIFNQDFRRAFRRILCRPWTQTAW
Summary of the method: (§1)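 Equilibrium displacement of [3H]rauwolscine (0.5 nM) measured on membranes from stably transfected LM(tk−) lines, one per α2 subtype, in glycylglycine buffer at pH 7.6. Nonspecific binding set by 10 μM phentolamine; separation by filtration.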

α2C receptor = target: T3, α2C receptor (Homo sapiens, UniProt P18825); assay: Competition binding, [3H]rauwolscine, human α2C receptor; settings: for Ki: read-out: PKi alpha-2 2c (converted); for pKi: PKi alpha-2 2c
T3 construct: host or cells: LM(tk-) cells, line L-α2C
T3 sequence (P18825 1-462): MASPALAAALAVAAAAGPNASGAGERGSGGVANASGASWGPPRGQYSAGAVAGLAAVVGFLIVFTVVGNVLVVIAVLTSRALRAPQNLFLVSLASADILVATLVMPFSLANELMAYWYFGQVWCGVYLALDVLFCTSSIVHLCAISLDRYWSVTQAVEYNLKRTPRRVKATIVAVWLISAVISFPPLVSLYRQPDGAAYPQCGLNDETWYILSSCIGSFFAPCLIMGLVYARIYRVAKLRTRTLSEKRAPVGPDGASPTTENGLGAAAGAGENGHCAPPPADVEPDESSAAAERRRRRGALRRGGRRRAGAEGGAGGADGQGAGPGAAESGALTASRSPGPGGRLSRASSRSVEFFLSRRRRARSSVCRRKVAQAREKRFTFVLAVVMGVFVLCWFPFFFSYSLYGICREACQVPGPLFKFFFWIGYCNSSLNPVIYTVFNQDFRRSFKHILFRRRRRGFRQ
Summary of the method: as §1

[2] = [3H]prazosin, cloned human receptor, LM(tk-) cell membranes, mean
[3] = [3H]rauwolscine, human receptor, LM(tk-) cell lysates, mean

SMILES: CC(=O)C1=C(C)NC(CCCCN)=C(C(=O)NCCCN2CCC(c3ccccc3)(c3ccccc3)CC2)C1c1ccc([N+](=O)[O-])cc1 (stereo not drawn) [Example 176, 5-Acetyl-2-(4-aminobutyl)-1,4-dihydro-6-methyl-4-(4-nitrophenyl)-3-{N-[3-(4,4-diphenylpiperidin-1-yl)propyl]}carboxamidopyridine]
- pKi [1, 2]: 6.51
- pKi (α2B receptor; [3]): 5.92
- Ki (α2C receptor; [3]): 724 nM

SMILES: COC(=O)C1(c2ccccc2)CCN(CCCNC(=O)C2=C(CCCCN)NC(C)=C(C(N)=O)C2c2ccc([N+](=O)[O-])cc2)CC1 (stereo not drawn) [Example 177, 2-(4-Aminobutyl)-5-carboxamido-1,4-dihydro-3-{N-[3-(4-methoxycarbonyl-4-phenylpiperidin-1-yl)propyl]}carboxamido-6-methyl-4-(4-nitrophenyl)pyridine]
- pKi [1]: 5.85
- pKi (α2B receptor): 5.54
- pKi (α2C receptor): 6.08

SMILES: COC(=O)C1(c2ccccc2)CCN(CCCNC(=O)C2=C(CCCCN)NC(C)=C(C(C)=O)C2c2ccc([N+](=O)[O-])cc2)CC1 (stereo not drawn) [Example 178, 5-Acetyl-2-(4-aminobutyl)-1,4-dihydro-3-{N-[3-(4-methoxycarbonyl-4-phenylpiperidin-1-yl)propyl]}carboxamido-6-methyl-4-(4-nitrophenyl) pyridine]
- Ki [1, 2]: 0.832 µM
- Ki (α2B receptor; [3]): 759 nM
- Ki (α2C receptor; [3]): 398 nM

SMILES: CCC1=C(C(=O)NC)C(c2ccc([N+](=O)[O-])cc2)C(C(=O)NCCCN2CCC(C(=O)OC)(c3ccccc3)CC2)=C(CC)N1 (stereo not drawn) [Example 179, 2,6-Diethyl-1,4-dihydro-3-{N-[3-(4-methoxycarbonyl-4-phenyl-piperidin-1-yl)propyl]}carboxamido-5-(N-methyl)carboxamido-4-(4-nitrophenyl)pyridine]
- pKi [1]: 5.38
- pKi (α2B receptor): 5.73
- pKi (α2C receptor): 5.84

SMILES: CCNC(=O)C1=C(CC)NC(CC)=C(C(=O)NCCCN2CCC(C(=O)OC)(c3ccccc3)CC2)C1c1ccc([N+](=O)[O-])cc1 (stereo not drawn) [Example 180, 2,6-Diethyl-1,4-dihydro-5-(N-ethyl)carboxamido-3-{N-[3-(4-methoxycarbonyl-4-phenylpiperidin-1-yl)propyl]}carboxamido-4-(4-nitrophenyl)pyridine]
- pKi [1]: 5.52
- pKi (α2B receptor): 5.44
- pKi (α2C receptor): 5.24

SMILES: CCNC(=O)C1=C(CC)NC(CC)=C(C(=O)NCCCN2CCC(C(=O)OCC)(c3ccccc3)CC2)C1c1ccc([N+](=O)[O-])cc1 (stereo not drawn) [Example 182, 2,6-Diethyl-1,4-dihydro-3-{N-[3-(4-ethoxycarbonyl-4-phenylpiperidin-1-yl)propyl]}carboxamido-5-(N-ethyl)carboxamido-4(4-nitrophenyl)pyridine]
- pKi [1]: 5.47
- pKi (α2B receptor): 6.04
- pKi (α2C receptor): 5.94

SMILES: COC(=O)C1(c2ccccc2)CCN(CCCNC(=O)C2=C(COCCN=[N+]=[N-])NC(C)=C(C(N)=O)C2c2ccc([N+](=O)[O-])cc2)CC1 (stereo not drawn) [Example 183, 2-[(2-Azidoethoxy)methyl]-5-carboxamido-1,4-dihydro-3-{N-[3-(4-methoxycarbonyl-4-phenylpiperidin-1-yl)propyl]}carboxamido-6-methyl-4-(4-nitrophenyl)pyridine]
- Ki [1, 2]: 0.501 µM
- Ki (α2B receptor; [3]): 724 nM
- Ki (α2C receptor; [3]): 437 nM

SMILES: CCNC(=O)C1=C(CC)NC(COCCN)=C(C(=O)NCCCN2CCC(C(=O)OCC)(c3ccccc3)CC2)C1c1ccc([N+](=O)[O-])cc1 (stereo not drawn) [Example 192, 2-[(2-Aminoethoxy)methyl]-3-{N-[3-(4-ethoxycarbonyl-4-phenyl-piperidin-1-yl)propyl]}carboxamido-1,4-dihydro-6-ethyl-5-(N-ethyl)carboxamido-4-(4-nitrophenyl)pyridine]
- Ki [1, 2]: 3.02 µM
- Ki (α2B receptor; [3]): 6170 nM
- Ki (α2C receptor; [3]): 1480 nM

SMILES: CCOC(=O)C1(c2ccccc2)CCN(CCCNC(=O)C2=C(COCCN)NC(CC)=C(C(N)=O)C2c2ccc([N+](=O)[O-])cc2)CC1 (stereo not drawn) [Example 193, 2-[(2-Aminoethoxy)methyl]-5-carboxamido-3-{N-[3-(4-ethoxycarbonyl-4-phenylpiperidin-1-yl)propyl]}carboxamido-1,4-dihydro-6-ethyl-4-(4-nitrophenyl)pyridine]
- Ki [1, 2]: 2.88 µM
- Ki (α2B receptor; [3]): 2400 nM
- Ki (α2C receptor; [3]): 631 nM

SMILES: CCOC(=O)C1(c2ccccc2)CCN(CCCNC(=O)C2=C(COCCN)NC(CC)=C(C(=O)NC)C2c2ccc([N+](=O)[O-])cc2)CC1 (stereo not drawn) [Example 194, 2-[(2-Aminoethoxy)methyl]-3-{N-[3-(4-ethoxycarbonyl-4-phenylpiperidin-1-yl)propyl]}carboxamido-1,4-dihydro-6-ethyl-5-(N-methyl) carboxamido-4-(4-nitrophenyl) pyridine]
- Ki [1, 2]: 4.9 µM
- Ki (α2B receptor; [3]): 5750 nM
- Ki (α2C receptor; [3]): 1070 nM

SMILES: CCOC(=O)C1(c2ccccc2)CCN(CCCNC(=O)C2=C(COCCN)NC(CC)=C(C(=O)O)C2c2ccc([N+](=O)[O-])cc2)CC1 (stereo not drawn) [Example 196, 2-[(2-Aminoethoxy)methyl]-3-{N-[3-(4-ethoxycarbonyl-4-phenylpiperidin-1-yl)propyl]}carboxamido-1,4-dihydro-6-ethyl-4-(4-nitrophenyl)pyridine-5-carboxylic Acid]
- Ki [1, 2]: 6.76 µM
- Ki (α2B receptor; [3]): 4680 nM
- Ki (α2C receptor; [3]): 3090 nM

SMILES: CCOC(=O)C1(c2ccccc2)CCN(CCCNC(=O)C2=C(COCCN)NC(CC)=C(C(=O)OC)C2c2ccc([N+](=O)[O-])cc2)CC1 (stereo not drawn) [Example 197, 2-[(2-Aminoethoxy)methyl]-3-{N-[3-(4-ethoxycarbonyl-4-phenylpiperidin-1-yl)propyl]}carboxamido-1,4-dihydro-6-ethyl-5-methoxycarbonyl-4-(4-nitrophenyl) pyridine]
- pKi [1]: 6.60
- pKi (α2B receptor): 5.63
- pKi (α2C receptor): 6.29

SMILES: CCC1=C(C(N)=O)C(c2ccc([N+](=O)[O-])cc2)C(C(=O)NCCCN2CCC(C(=O)OC)(c3ccccc3)CC2)=C(CC)N1 (stereo not drawn) [Example 200]
- pKi [1]: 5.48
- pKi (α2B receptor): 5.97
- pKi (α2C receptor): 5.79

SMILES: CC1=C(C(N)=O)C(c2ccc([N+](=O)[O-])cc2)C(C(=O)NCCCN2CCC(C(=O)OCCC#N)(c3ccccc3)CC2)=CN1C (stereo not drawn) [Example 209, 5-Carboxamido-3-{N-[3-(4-(2-cyanoethoxycarbonyl)-4-phenylpiperidin-1-yl)propyl]}carboxamido-1,4-dihydro-1,6-dimethyl-4-(4-nitrophenyl) pyridine]
- PKi alpha-1 1a [1, 2]: 5.17
- PKi alpha-2 2b (α2B receptor; [3]): 6.46
- PKi alpha-2 2c (α2C receptor; [3]): 5.70

SMILES: CC1=C(C(N)=O)C(c2ccc([N+](=O)[O-])cc2)C(C(=O)NCCCN2CCC(C(=O)O)(c3ccccc3)CC2)=C(C)N1 (stereo not drawn) [Example 210, 5-Carboxamido-3-{N-[3-(4-carboxy-4-phenylpiperidin-1-yl)propyl]}carboxamido-1,4-dihydro-2,6-dimethyl-4-(4-nitrophenyl)pyridine]
- pKi [1]: 4.14
- pKi (α2B receptor): 4.63
- pKi (α2C receptor): 4.66
